Results published in ChEMBL document CHEMBL3045628, “Quantitative structureactivity relationships studies for prediction of antimicrobial activity of synthesized disulfonamide derivatives” (2011).

Assays:
Type in all cases: functional
[1] = test system: Staphylococcus aureus; experiment: Antimicrobial activity against Staphylococcus aureus ATCC 25923 after 24 hr by broth microdilution assay
[2] = test system: Bacillus cereus; experiment: Antimicrobial activity against Bacillus cereus RSKK 863 after 24 hr by broth microdilution assay
[3] = test system: Escherichia coli; experiment: Antimicrobial activity against Escherichia coli ATCC 11230 after 24 hr by broth microdilution assay

## CS(=O)(=O)NCCCNS(C)(=O)=O
[1]
  -logMIC: 2.925
[2]
  -logMIC: 2.864
[3]
  -logMIC: 2.97

## CCS(=O)(=O)NCCCCNS(=O)(=O)CC
[1]
  -logMIC: 2.637
[2]
  -logMIC: 2.638
[3]
  -logMIC: 2.69

## Cc1ccc(S(=O)(=O)NCCCCNS(=O)(=O)c2ccc(C)cc2)cc1
[1]
  -logMIC: 3.26
[2]
  -logMIC: 3.35
[3]
  -logMIC: 3.5

## CS(=O)(=O)NCCCCCNS(C)(=O)=O
[1]
  -logMIC: 2.88
[2]
  -logMIC: 2.828
[3]
  -logMIC: 2.94

## COc1ccccc1S(=O)(=O)NCCNS(=O)(=O)c1ccccc1OC
[1]
  -logMIC: 3.58
[2]
  -logMIC: 3.66
[3]
  -logMIC: 3.72

## CCS(=O)(=O)NCCNS(=O)(=O)CC
[1]
  -logMIC: 2.66
[2]
  -logMIC: 2.66
[3]
  -logMIC: 2.72

## Cc1ccccc1S(=O)(=O)NCCNS(=O)(=O)c1ccccc1C
[1]
  -logMIC: 3.638
[2]
  -logMIC: 3.56
[3]
  -logMIC: 3.7

## CCS(=O)(=O)NCCCCCNS(=O)(=O)CC
[1]
  -logMIC: 2.61
[2]
  -logMIC: 2.58
[3]
  -logMIC: 2.67

## Cc1cccc(S(=O)(=O)NCCCCNS(=O)(=O)c2cccc(C)c2)c1
[1]
  -logMIC: 3.47
[2]
  -logMIC: 3.41
[3]
  -logMIC: 3.55

## Cc1cccc(S(=O)(=O)NCCNS(=O)(=O)c2cccc(C)c2)c1
[1]
  -logMIC: 3.522
[2]
  -logMIC: 3.48
[3]
  -logMIC: 3.58

## Cc1ccccc1S(=O)(=O)NCCCCNS(=O)(=O)c1ccccc1C
[1]
  -logMIC: 3.54
[2]
  -logMIC: 3.505
[3]
  -logMIC: 3.64

## O=S(=O)(NCCCCNS(=O)(=O)c1ccccc1)c1ccccc1
[1]
  -logMIC: 3.24
[2]
  -logMIC: 3.358
[3]
  -logMIC: 3.48

## CCCS(=O)(=O)NCCCCCNS(=O)(=O)CCC
[1]
  -logMIC: 2.96
[2]
  -logMIC: 2.78
[3]
  -logMIC: 3.191

## O=S(=O)(NCCNS(=O)(=O)c1ccccc1)c1ccccc1
[1]
  -logMIC: 3.38
[2]
  -logMIC: 3.37
[3]
  -logMIC: 3.51

## O=S(=O)(NCCCCCNS(=O)(=O)c1ccccc1)c1ccccc1
[1]
  -logMIC: 3.38
[2]
  -logMIC: 3.2
[3]
  -logMIC: 3.496

## Cc1ccccc1S(=O)(=O)NCCCNS(=O)(=O)c1ccccc1C
[1]
  -logMIC: 3.6
[2]
  -logMIC: 3.542
[3]
  -logMIC: 3.68

## COc1ccc(S(=O)(=O)NCCCNS(=O)(=O)c2ccc(OC)cc2)cc1
[1]
  -logMIC: 3.46
[2]
  -logMIC: 3.42
[3]
  -logMIC: 3.511

## COc1ccc(S(=O)(=O)NCCNS(=O)(=O)c2ccc(OC)cc2)cc1
[1]
  -logMIC: 3.49
[2]
  -logMIC: 3.46
[3]
  -logMIC: 3.56

## Cc1ccc(S(=O)(=O)NCCNS(=O)(=O)c2ccc(C)cc2)cc1
[1]
  -logMIC: 3.4
[2]
  -logMIC: 3.4
[3]
  -logMIC: 3.53

## CS(=O)(=O)NCCCCNS(C)(=O)=O
[1]
  -logMIC: 2.9
[2]
  -logMIC: 2.84
[3]
  -logMIC: 2.95

## CCCCS(=O)(=O)NCCNS(=O)(=O)CCCC
[1]
  -logMIC: 2.974
[2]
  -logMIC: 2.83
[3]
  -logMIC: 3.12

## CCCS(=O)(=O)NCCCNS(=O)(=O)CCC
[1]
  -logMIC: 3.009
[2]
  -logMIC: 3.058
[3]
  -logMIC: 3.104

## CCCS(=O)(=O)NCCNS(=O)(=O)CCC
[1]
  -logMIC: 3.003
[2]
  -logMIC: 3.179
[3]
  -logMIC: 3.258

## CS(=O)(=O)NCCNS(C)(=O)=O
[1]
  -logMIC: 2.99
[2]
  -logMIC: 2.876
[3]
  -logMIC: 2.99

## Cc1ccc(S(=O)(=O)NCCCNS(=O)(=O)c2ccc(C)cc2)cc1
[1]
  -logMIC: 3.3
[2]
  -logMIC: 3.38
[3]
  -logMIC: 3.52

## COc1cccc(S(=O)(=O)NCCCNS(=O)(=O)c2cccc(OC)c2)c1
[1]
  -logMIC: 3.5
[2]
  -logMIC: 3.55
[3]
  -logMIC: 3.59

## Cc1cccc(S(=O)(=O)NCCCNS(=O)(=O)c2cccc(C)c2)c1
[1]
  -logMIC: 3.48
[2]
  -logMIC: 3.44
[3]
  -logMIC: 3.57

## O=S(=O)(NCCCNS(=O)(=O)c1ccccc1)c1ccccc1
[1]
  -logMIC: 3.285
[2]
  -logMIC: 3.36
[3]
  -logMIC: 3.49

## CCCCS(=O)(=O)NCCCNS(=O)(=O)CCCC
[1]
  -logMIC: 2.861
[2]
  -logMIC: 2.917
[3]
  -logMIC: 3.116

## COc1ccccc1S(=O)(=O)NCCCNS(=O)(=O)c1ccccc1OC
[1]
  -logMIC: 3.55
[2]
  -logMIC: 3.6
[3]
  -logMIC: 3.711

## COc1cccc(S(=O)(=O)NCCNS(=O)(=O)c2cccc(OC)c2)c1
[1]
  -logMIC: 3.52
[2]
  -logMIC: 3.58
[3]
  -logMIC: 3.6

## CCCCS(=O)(=O)NCCCCNS(=O)(=O)CCCC
[1]
  -logMIC: 2.829
[2]
  -logMIC: 2.85
[3]
  -logMIC: 2.857

## CCCS(=O)(=O)NCCCCNS(=O)(=O)CCC
[1]
  -logMIC: 2.933
[2]
  -logMIC: 2.95
[3]
  -logMIC: 3.119

## CCS(=O)(=O)NCCCNS(=O)(=O)CC
[1]
  -logMIC: 2.642
[2]
  -logMIC: 2.642
[3]
  -logMIC: 2.7
